Experimental data taken from patent publication US8673908B2, “Kynurenine production inhibitor” (Kyowa Hakko Kirin Co., Ltd., priority 2008, dated 2014).

Test system: kynurenine production in IFN-γ-treated KATO-III cells
Test: Inhibitory activity on kynurenine production (Test Example 1)
Assay type: cell-based
Conditions: Homo sapiens, IFN-γ treatment, culture for 96 hours, read-out: IC50 value, inhibition of kynurenine production
Method: This assay was performed according to a method modified from the method described in the Journal of Biological Chemistry (J. Biol. Chem.), vol. 263, pp. 2041-2048 (1988). Culture of KATO-III derived from human gastric cancer cells was performed by use of RPMI 1640 (GIBCO, 11875) supplemented with 10 vol % FBS (GIBCO, 10091-148, lot. 665285). 1 μL of a DMSO solution of the test substance was diluted with 199 μL of the culture medium, and the diluted solution was added to wells of a 384 well plate (10 μL/well). Then, IFN-γ (Sigma, 1-3265) was added to the culture medium so that the concentration of IFN-γ was 31.25 ng/mL, and the KATO-III cells were suspended at 50,000 cells/ml, in the culture medium. 40 μL of the suspension was added to each well (2,000 cells/well), and culture of the KATO-III cells was performed at 37° C. under a 5% CO2 atmosphere for 96 hours. The final concentration of DMSO was limited to 0.1 vol % or less so that DMSO itself might not affect the kynurenine concentration measured by this assay. After the culture, 10 μL of a 30 w/v % aqueous trichloroacetic acid solution was added to each well, and incubation was performed at 65° C. for 30 minutes. The plate was centrifuged at 2,500×g for 5 minutes, and then 15 μL of the supernatant in each well was transferred into another 384 well plate. To each of the transferred supernatants, 15 μL of a 2 w/v % solution of p-dimethylaminobenzaldehyde in acetic acid was added, incubation was performed at 65° C. for 20 minutes, and then the absorbance at 480 nm was measured.
[formula] Sample: the absorbance value of the well to which a DMSO solution containing the test substance was added and in which cells were treated with IFN-γ. Blank: the absorbance value of the well to which only DMSO, not the test substance was added and in which cells were treated with IFN-γ. Control: the absorbance value of the well to which only DMSO, not the test substance was added and in which cells were not treated with IFN-γ.
In this assay, expression of IDO in KATO-III cells is induced by IFN-γ treatment and then kynurenine in the culture medium is quantified. It is known that the kynurenine concentration in a culture medium increases in proportion to the enzymatic activity of intracellular IDO (for example, the Journal of Biological Chemistry (J. Biol. Chem.), vol. 263, pp. 2041-2048 (1988)). […] It is known that kynurenine production is inhibited by IDO inhibitors (for example, the Journal of Clinical Investigation (J. Clin. Invest.), vol. 117, No. 5, pp. 1147-1154 […]), and thus it is expected that Compound (I) also has an inhibitory effect on IDO.

SMILES	IC50
COc1ccc(COc2nc(Cl)cnc2NS(=O)(=O)c2cccc(Cl)c2Cl)cc1 [Compound 2]	1 to 10 µM
O=S(=O)(Nc1ncc(Cl)nc1OCc1ccc2ccccc2c1)c1cccc(Cl)c1Cl [Compound 3]	1 to 10 µM
COc1ccc(COc2nc3cccnc3nc2NS(=O)(=O)c2cccc(Cl)c2Cl)cc1 [Compound 5]	1 to 10 µM
O=S(=O)(Nc1nc2ccccc2nc1OCc1cccnc1)c1cccc(Cl)c1Cl [Compound 6, 2,3-dichloro-N-{3-[(pyridin-3-yl)methoxy]quinoxalin-2-yl}-benzenesulfonamide]	1 to 10 µM
Cc1ccc(S(=O)(=O)Nc2nc3ccccc3nc2OCc2ccc3ccccc3c2)cc1 [Compound 13, N-{3-[(2-naphthyl)methoxy]quinoxalin-2-yl}-4-toluenesulfonamide]	1 to 10 µM
O=S(=O)(Nc1nc2ccccc2nc1OCc1ccncc1)c1cccc(Cl)c1Cl [Compound 26, 2,3-dichloro-N-{3-[(pyridin-4-yl)methoxy]quinoxalin-2-yl}-benzenesulfonamide]	1 to 10 µM
O=S(=O)(Nc1nc2ccccc2nc1OCc1ccc2ccccc2c1)c1cc(Cl)ccc1Cl [Compound 28, 2,5-dichloro-N-{3-[(2-naphthyl)methoxy]quinoxalin-2-yl}-benzenesulfonamide]	< 1 µM
O=S(=O)(Nc1nc2ccccc2nc1OCc1ccc2ccccc2c1)c1ccc(Cl)cc1Cl [Compound 29, 2,4-dichloro-N-{3-[(2-naphthyl)methoxy]quinoxalin-2-yl}-benzenesulfonamide]	< 1 µM
O=S(=O)(Nc1nc2ccccc2nc1OCc1ccc2ccccc2c1)c1ccc(Cl)c(Cl)c1 [Compound 30, 3,4-dichloro-N-{3-[(2-naphthyl)methoxy]quinoxalin-2-yl}-benzenesulfonamide]	1 to 10 µM
CCC(Oc1nc2ccccc2nc1NS(=O)(=O)c1cccc(Cl)c1Cl)c1cccnc1 (stereo not drawn) [Compound 31, 2,3-dichloro-N-{3-[1-(pyridin-3-yl)propoxy]quinoxalin-2-yl}benzenesulfonamide]	< 1 µM
O=S(=O)(Nc1nc2ccccc2nc1OCc1ccccc1)c1cccc(Cl)c1Cl [Compound 32, 2,3-dichloro-N-(3-benzyloxyquinoxalin-2-yl)benzenesulfonamide]	1 to 10 µM
CC(C)C(Oc1nc2ccccc2nc1NS(=O)(=O)c1cccc(Cl)c1Cl)c1cccnc1 (stereo not drawn) [Compound 34, 2,3-dichloro-N-{3-[2-methyl-1-(pyridin-3-yl)propoxy]-quinoxalin-2-yl}benzenesulfonamide]	< 1 µM
O=S(=O)(Nc1nc2ccccc2nc1OC(c1ccc(C(F)(F)F)cc1)C(F)(F)F)c1ccccc1C(F)(F)F (stereo not drawn) [Compound 35, 2-(trifluoromethyl)-N-{3-[2,2,2-trifluoro-1-(4-trifluoromethylphenyl)ethoxy]quinoxalin-2-yl}benzenesulfonamide]	< 1 µM
O=S(=O)(Nc1nc2ccccc2nc1OC(c1ccc(C(F)(F)F)cc1)C(F)(F)F)c1cccc(Cl)c1Cl (stereo not drawn) [Compound 36, 2,3-dichloro-N-{3-[2,2,2-trifluoro-1-(4-trifluoromethyl-phenyl)ethoxy]quinoxalin-2-yl}benzenesulfonamide]	< 1 µM
CC(C)(C)C(Oc1nc2ccccc2nc1NS(=O)(=O)c1cccc(Cl)c1Cl)c1cccnc1 (stereo not drawn) [Compound 37, 2,3-dichloro-N-{3-[2,2-dimethyl-1-(pyridin-3-yl)propoxy]-quinoxalin-2-yl}benzenesulfonamide]	< 1 µM
CC(C)(F)C(Oc1nc2ccccc2nc1NS(=O)(=O)c1cccc(Cl)c1Cl)c1cccnc1 (stereo not drawn) [Compound 39, 2,3-dichloro-N-{3-[2-fluoro-2-methyl-1-(pyridin-3-yl)-propoxy]quinoxalin-2-yl}benzenesulfonamide]	< 1 µM
COc1ccc(C(Oc2nc3ccccc3nc2NS(=O)(=O)c2ccccc2Cl)C(F)(F)F)cc1 (stereo not drawn) [Compound 40, 2-chloro-N-{3-[2,2,2-trifluoro-1-(4-methoxyphenyl)ethoxy]-quinoxalin-2-yl}benzenesulfonamide]	< 1 µM
Cc1ccc(C(Oc2nc3ccccc3nc2NS(=O)(=O)c2ccccc2Cl)C(F)(F)F)cn1 (stereo not drawn) [Compound 41, 2-chloro-N-{3-[2,2,2-trifluoro-1-(6-methylpyridin-3-yl)-ethoxy]quinoxalin-2-yl}benzenesulfonamide]	< 1 µM
N#Cc1ccc(C(Oc2nc3ccccc3nc2NS(=O)(=O)c2ccccc2Cl)C(F)(F)F)cc1 (stereo not drawn) [Compound 42, 2-chloro-N-{3-[2,2,2-trifluoro-1-(4-cyanophenyl)ethoxy]-quinoxalin-2-yl}benzenesulfonamide]	< 1 µM
COC(=O)C(Oc1nc2ccccc2nc1NS(=O)(=O)c1cccc(Cl)c1Cl)c1ccc(C(F)(F)F)cc1 (stereo not drawn) [Compound 43, 2,3-dichloro-N-{3-{methoxycarbonyl[4-(trifluoromethyl)-phenyl]methoxy}quinoxalin-2-yl}benzenesulfonamide]	< 1 µM
O=S(=O)(Nc1nc2ccccc2nc1OC(c1ccccc1)C(F)(F)F)c1ccccc1Cl (stereo not drawn) [Compound 44, 2-chloro-N-[3-(2,2,2-trifluoro-1-phenylethoxy)quinoxalin-2-yl]benzenesulfonamide]	< 1 µM

More lines, now with the values ahead:

IC50	SMILES
< 1 µM	O=S(=O)(Nc1nc2ccccc2nc1OCc1ccc2ccccc2c1)c1cccc(Cl)c1Cl [Compound 10, 2,3-dichloro-N-{3-[(2-naphthyl)methoxy]quinoxalin-2-yl}-benzenesulfonamide]
< 1 µM	O=S(=O)(Nc1nc2ccccc2nc1OCc1ccc2ccccc2c1)c1cccc2ccccc12 [Compound 11, N-{3-[(2-naphthyl)methoxy]quinoxalin-2-yl}-1-naphthalenesulfonamide]
< 1 µM	O=S(=O)(Nc1nc2ccccc2nc1OCc1ccc2ccccc2c1)c1cc(Cl)cc(Cl)c1 [Compound 15, 3,5-dichloro-N-{3-[(2-naphthyl)methoxy]quinoxalin-2-yl}-benzenesulfonamide]
< 1 µM	O=S(=O)(Nc1nc2ccccc2nc1OCc1cccc(C(F)(F)F)c1)c1cccc(Cl)c1Cl [Compound 18, 2,3-dichloro-N-{3-[(3-trifluoromethylphenyl)methoxy]-quinoxalin-2-yl}benzenesulfonamide]
< 1 µM	O=S(=O)(Nc1nc2ccccc2nc1OCc1ccc2ccccc2c1)c1ccccc1C(F)(F)F [Compound 21, 2-(trifluoromethyl)-N-{3-[(2-naphthyl)methoxy]quinoxalin-2-yl}benzenesulfonamide]
< 1 µM	O=S(=O)(Nc1nc2ccccc2nc1OCc1ccc2ccccc2c1)c1cccc(C(F)(F)F)c1 [Compound 22, 3-(trifluoromethyl)-N-{3-[(2-naphthyl)methoxy]quinoxalin-2-yl}benzenesulfonamide]
< 1 µM	O=S(=O)(Nc1nc2ccccc2nc1OCc1ccc2ccccc2c1)c1ccc(C(F)(F)F)cc1 [Compound 23, 4-(trifluoromethyl)-N-{3-[(2-naphthyl)methoxy]quinoxalin-2-yl}benzenesulfonamide]
< 1 µM	O=S(=O)(Nc1nc2ccccc2nc1OCc1ccc2ncccc2c1)c1cccc(Cl)c1Cl [Compound 24, 2,3-dichloro-N-{3-[(quinolin-6-yl)methoxy]quinoxalin-2-yl}-benzenesulfonamide]
< 1 µM	O=S(=O)(Nc1nc2ccccc2nc1OCc1ccc2ccccc2c1)c1c(Cl)cccc1Cl [Compound 27, 2,6-dichloro-N-{3-[(2-naphthyl)methoxy]quinoxalin-2-yl}-benzenesulfonamide]
